Data on 14 compounds can be found in the NIST ThermoML archive (doi:10.1016/j.jct.2016.02.006).

Structures are written as SMILES. ± gives the expanded uncertainty stated by the source.

One data set is described as follows: Molar enthalpy of transition or fusion. The conditions noted are these: Crystal; DSC.
On to `C=C(C)[C@@H]1CC[C@]2(CO)CC[C@]3(C)[C@H](CC[C@@H]4[C@@]5(C)CC[C@H](O)C(C)(C)[C@@H]5CC[C@]43C)[C@@H]12` [betulin], for which the “Molar enthalpy of transition or fusion” value amounted to 55.2 ± 1.5 kJ/mol.

Assay in another data set: not given
The settings on record: Crystal; DTA.
As for `C=C(C)[C@@H]1CC[C@]2(CO)CC[C@]3(C)[C@H](CC[C@@H]4[C@@]5(C)CC[C@H](O)C(C)(C)[C@@H]5CC[C@]43C)[C@@H]12` [betulin], the Normal melting temperature turned out to be 255.0 ± 0.4 °C.

Another data set can be described thus: refractive index (Na D-line) (dimensionless). The conditions noted are these: 293.15 K; 101.33 kPa; Liquid; Standard Abbe refractometry.
What is called refractive index is a measure of how strongly the sample bends light. On to `NCCO` [2-aminoethan-1-ol], for which the refractive index was 1.4542 ± 0.0004.
On to `O=CN1CCOCC1` [N-formylmorpholine], for which the refractive index amounted to 1.4849 ± 0.0004.
For `CN1CCCC1=O` [N-methylpyrrolidone], the refractive index was 1.469 ± 0.0004.
Regarding `CC#N` [acetonitrile], the refractive index was 1.3439 ± 0.0004.
On to `CCC(C)O` (stereo not given) [butan-2-ol], for which the refractive index came out at 1.3983 ± 0.0004.
Still for that read-out and setting: with `CN(C)C=O` [dimethylformamide] the figure was 1.4304 ± 0.0004.
Consider `CCCCCCCCCCCC` [dodecane], for which the refractive index came out at 1.4218 ± 0.0004.
For the compound `CCCCCCCCCCCCCCCC` [hexadecane], the refractive index was determined as 1.4346 ± 0.0004.
Turning to `CCCCCCCCCO` [nonan-1-ol], the refractive index came out at 1.4334 ± 0.0004.
For `CCCCCCCCO` [octan-1-ol], the refractive index was found to be 1.4291 ± 0.0004.
Take `CCCCCCCC` [octane]: the refractive index is on record as 1.3978 ± 0.0004.
As to `CCCCCO` [pentan-1-ol], the refractive index is given as 1.4098 ± 0.0004.
For the compound `O` [water], the refractive index is 1.3329 ± 0.0004.
